What was measured:
DDR2 = target: T1, DDR2 (Homo sapiens, UniProt Q16832); experiment: LanthaScreen Europium Kinase Binding assay, DDR2; conditions: 5 nM DDR2, 10 nM Kinase Tracer 178, 1 h at rt; Ki from IC50 by Cheng-Prusoff; read-out: Ki DDR2
T1 construct: purchased Life Technologies
T1 sequence (Q16832 22-855): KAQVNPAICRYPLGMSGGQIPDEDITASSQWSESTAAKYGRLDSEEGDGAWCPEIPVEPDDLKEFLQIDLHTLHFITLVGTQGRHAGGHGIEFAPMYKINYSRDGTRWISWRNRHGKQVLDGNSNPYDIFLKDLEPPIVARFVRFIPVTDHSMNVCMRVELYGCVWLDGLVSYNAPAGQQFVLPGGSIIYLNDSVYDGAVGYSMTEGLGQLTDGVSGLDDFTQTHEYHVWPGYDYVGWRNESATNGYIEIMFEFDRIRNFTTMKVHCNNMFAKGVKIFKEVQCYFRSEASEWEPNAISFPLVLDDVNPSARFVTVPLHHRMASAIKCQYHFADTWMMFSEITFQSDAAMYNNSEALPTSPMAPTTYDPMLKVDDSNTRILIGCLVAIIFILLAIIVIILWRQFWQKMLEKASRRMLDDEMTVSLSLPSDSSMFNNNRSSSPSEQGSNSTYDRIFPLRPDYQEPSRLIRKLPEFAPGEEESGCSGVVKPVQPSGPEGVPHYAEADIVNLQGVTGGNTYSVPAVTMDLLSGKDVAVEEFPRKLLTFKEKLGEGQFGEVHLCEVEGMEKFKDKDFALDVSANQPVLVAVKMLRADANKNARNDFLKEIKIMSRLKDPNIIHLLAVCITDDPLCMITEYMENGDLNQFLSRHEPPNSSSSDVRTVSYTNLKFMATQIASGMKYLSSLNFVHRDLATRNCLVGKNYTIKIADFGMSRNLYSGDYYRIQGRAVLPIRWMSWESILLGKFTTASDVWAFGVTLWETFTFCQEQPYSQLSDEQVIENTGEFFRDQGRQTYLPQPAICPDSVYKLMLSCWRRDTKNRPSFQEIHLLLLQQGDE
Outline: (§1)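 Compounds were incubated 1 h at rt with 5 nM DDR1 plus 20 nM Kinase Tracer 178, or 5 nM DDR2 plus 10 nM tracer, and 2 nM Eu anti-GST antibody in HEPES pH 7.5 buffer. Read-out was the TR-FRET 665/615 nm ratio. IC50 came from a 4-parameter fit and was converted to Ki by Cheng-Prusoff.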

DDR1 = target: T2, DDR1 (Homo sapiens, UniProt Q08345); experiment: LanthaScreen Europium Kinase Binding assay, DDR1; conditions: 5 nM DDR1, 20 nM Kinase Tracer 178, 1 h at rt; Ki from IC50 by Cheng-Prusoff; read-out: Ki DDR1
T2 construct: purchased Carna Biosciences
T2 sequence (Q08345 19-913): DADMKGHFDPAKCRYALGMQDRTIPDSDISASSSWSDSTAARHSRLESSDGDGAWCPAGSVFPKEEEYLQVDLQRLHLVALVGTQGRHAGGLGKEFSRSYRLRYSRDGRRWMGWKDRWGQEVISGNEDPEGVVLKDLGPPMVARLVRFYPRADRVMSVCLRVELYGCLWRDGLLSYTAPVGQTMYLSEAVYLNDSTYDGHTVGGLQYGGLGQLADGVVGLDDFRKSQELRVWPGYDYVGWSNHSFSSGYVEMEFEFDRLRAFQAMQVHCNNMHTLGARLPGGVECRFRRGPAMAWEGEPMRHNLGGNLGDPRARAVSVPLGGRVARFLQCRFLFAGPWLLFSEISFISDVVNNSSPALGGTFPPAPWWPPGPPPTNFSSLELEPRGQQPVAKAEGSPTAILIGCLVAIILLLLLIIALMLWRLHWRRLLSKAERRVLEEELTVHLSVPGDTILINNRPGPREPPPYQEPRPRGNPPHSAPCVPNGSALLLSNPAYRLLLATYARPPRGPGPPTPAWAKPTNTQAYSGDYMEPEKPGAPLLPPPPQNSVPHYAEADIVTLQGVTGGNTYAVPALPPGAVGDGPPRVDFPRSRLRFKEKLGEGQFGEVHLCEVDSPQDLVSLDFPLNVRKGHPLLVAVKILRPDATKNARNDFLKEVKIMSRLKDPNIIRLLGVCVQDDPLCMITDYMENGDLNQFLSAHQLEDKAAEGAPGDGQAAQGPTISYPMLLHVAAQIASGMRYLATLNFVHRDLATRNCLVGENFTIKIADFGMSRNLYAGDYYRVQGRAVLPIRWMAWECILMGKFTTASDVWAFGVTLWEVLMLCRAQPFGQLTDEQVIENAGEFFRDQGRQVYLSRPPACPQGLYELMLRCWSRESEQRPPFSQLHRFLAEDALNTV
Outline: as §1

Cc1ccc(C(=O)Nc2cncc(C(F)(F)F)c2)cc1[C@@H]1CCN(c2ccnc(C(N)=O)c2)C1 [Example 63, (S)-4-(3-(2-methyl-5-((5-(trifluoromethyl)pyridin-3-yl)carbamoyl)phenyl)pyrrolidin-1-yl)picolinamide]
Ki (DDR2): < 5 nM | Ki (DDR1): < 5 nM

COc1ccc(C(=O)Nc2cncc(C(F)(F)F)c2)cc1C1CCN(c2ccnc(C(N)=O)c2)C1 (centres unmarked) [Example 64, 4-(3-(2-methoxy-5-((5-(trifluoromethyl)pyridin-3-yl)carbamoyl)phenyl)pyrrolidin-1-yl)picolinamide]
Ki (DDR2): 5 to 25 nM | Ki (DDR1): < 5 nM

Cc1ccc(C(=O)Nc2cncc(C(F)(F)F)c2)cc1[C@@H]1CCN(c2cnn(C)c2C(N)=O)C1 [Example 65, (S)-1-methyl-4-(3-(2-methyl-5-((5-(trifluoromethyl)pyridin-3-yl)carbamoyl)phenyl)pyrrolidin-1-yl)-1H-pyrazole-5-carboxamide]
Ki (DDR2): 5 to 25 nM | Ki (DDR1): < 5 nM

Cc1ccc(C(=O)Nc2cncc(C(F)(F)F)c2)cc1[C@@H]1CCN(c2cccc(C(N)=O)c2)C1 [Example 66, (S)-3-(1-(3-carbamoylphenyl)pyrrolidin-3-yl)-4-methyl-N-(5-(trifluoromethyl)pyridin-3-yl)benzamide]
Ki (DDR2): 25 to 100 nM | Ki (DDR1): 5 to 25 nM

Cc1ccc(C(=O)Nc2cc(C(F)F)ccn2)cc1[C@@H]1CCN(c2cncnc2)C1 [Example 67, (S)-N-(4-(difluoromethyl)pyridin-2-yl)-4-methyl-3-(1-(pyrimidin-5-yl)pyrrolidin-3-yl)benzamide]
Ki (DDR2): < 5 nM | Ki (DDR1): < 5 nM

Cc1ccc(C(=O)Nc2cc(C(F)(F)F)nn2C)cc1[C@@H]1CCN(c2cncnc2)C1 [Example 68, (S)-4-methyl-N-(1-methyl-3-(trifluoromethyl)-1H-pyrazol-5-yl)-3-(1-(pyrimidin-5-yl)pyrrolidin-3-yl)benzamide]
Ki (DDR2): 5 to 25 nM | Ki (DDR1): 5 to 25 nM

CCc1cc(NC(=O)c2ccc(C)c([C@@H]3CCN(c4cncnc4)C3)c2)no1 [Example 69, (S)-N-(5-ethylisoxazol-3-yl)-4-methyl-3-(1-(pyrimidin-5-yl)pyrrolidin-3-yl)benzamide]
Ki (DDR2): 5 to 25 nM | Ki (DDR1): < 5 nM

Cc1ccc(C(=O)Nc2cc(C3CC3)nn2C)cc1[C@@H]1CCN(c2cncnc2)C1 [Example 70, (S)-N-(3-cyclopropyl-1-methyl-1H-pyrazol-5-yl)-4-methyl-3-(1-(pyrimidin-5-yl)pyrrolidin-3-yl)benzamide]
Ki (DDR2): 25 to 100 nM | Ki (DDR1): 5 to 25 nM

Cc1ccc(C(=O)Nc2cncc(C(F)(F)F)c2)cc1[C@@H]1CCN(c2cnc3ccccn23)C1 [Example 71, (S)-3-(1-(imidazo[1,2-a]pyridin-3-yl)pyrrolidin-3-yl)-4-methyl-N-(5-(trifluoromethyl)pyridin-3-yl)benzamide]
Ki (DDR2): < 5 nM | Ki (DDR1): < 5 nM

Cc1ccc(C(=O)Nc2cncc(C(F)(F)F)c2)cc1[C@@H]1CCN(c2cnc3ccc(N4CCN(C)CC4)cn23)C1 [Example 72, (S)-4-methyl-3-(1-(6-(4-methylpiperazin-1-yl)imidazo[1,2-a]pyridin-3-yl)pyrrolidin-3-yl)-N-(5-(trifluoromethyl)pyridin-3-yl)benzamide]
Ki (DDR2): 5 to 25 nM | Ki (DDR1): < 5 nM

Cc1ccc(C(=O)Nc2cncc(C(F)(F)F)c2)cc1[C@@H]1CCN(c2cnc3ccc(N4CCN(CC#N)CC4)cn23)C1 [Example 73, (S)-3-(1-(6-(4-(cyanomethyl)piperazin-1-yl)imidazo[1,2-a]pyridin-3-yl)pyrrolidin-3-yl)-4-methyl-N-(5-(trifluoromethyl)pyridin-3-yl)benzamide]
Ki (DDR2): 5 to 25 nM | Ki (DDR1): < 5 nM

Cc1ccc(C(=O)Nc2cncc(C(F)(F)F)c2)cc1[C@@H]1CCN(c2cncc(OCCN3CCN(C)CC3)c2)C1 [Example 74, (S)-4-methyl-3-(1-(5-(2-(4-methylpiperazin-1-yl)ethoxy)pyridin-3-yl)pyrrolidin-3-yl)-N-(5-(trifluoromethyl)pyridin-3-yl)benzamide]
Ki (DDR2): 5 to 25 nM | Ki (DDR1): < 5 nM

Cc1ccc(C(=O)Nc2cncc(C(F)(F)F)c2)cc1[C@@H]1CCN(c2cnccc2C#N)C1 [Example 75, (S)-3-(1-(4-cyanopyridin-3-yl)pyrrolidin-3-yl)-4-methyl-N-(5-(trifluoromethyl)pyridin-3-yl)benzamide]
Ki (DDR2): < 5 nM | Ki (DDR1): < 5 nM

COc1ccncc1N1CC[C@@H](c2cc(C(=O)Nc3cncc(C(F)(F)F)c3)ccc2C)C1 [Example 76, (S)-3-(1-(4-methoxypyridin-3-yl)pyrrolidin-3-yl)-4-methyl-N-(5-(trifluoromethyl)pyridin-3-yl)benzamide]
Ki (DDR2): < 5 nM | Ki (DDR1): < 5 nM

Cc1ccc(C(=O)Nc2cncc(C(F)(F)F)c2)cc1[C@@H]1CCN(c2cnc3ccc(CN4CCOCC4)cn23)C1 [Example 77, (S)-4-methyl-3-(1-(6-(morpholinomethyl)imidazo [1,2-a]pyridin-3-yl)pyrrolidin-3-yl)-N-(5-(trifluoromethyl)pyridin-3-yl)benzamide]
Ki (DDR2): 5 to 25 nM | Ki (DDR1): < 5 nM

Cc1ccc(C(=O)Nc2cncc(C(F)(F)F)c2)cc1[C@@H]1CCN(c2cnc3ccc(C#N)cn23)C1 [Example 78, (S)-3-(1-(6-cyanoimidazo[1,2-a]pyridin-3-yl)pyrrolidin-3-yl)-4-methyl-N-(5-(trifluoromethyl)pyridin-3-yl)benzamide]
Ki (DDR2): < 5 nM | Ki (DDR1): < 5 nM

COCCOc1cncc(N2CC[C@@H](c3cc(C(=O)Nc4cncc(C(F)(F)F)c4)ccc3C)C2)c1 [Example 79, (S)-3-(1-(5-(2-methoxyethoxy)pyridin-3-yl)pyrrolidin-3-yl)-4-methyl-N-(5-(trifluoromethyl)pyridin-3-yl)benzamide]
Ki (DDR2): 5 to 25 nM | Ki (DDR1): < 5 nM

Cc1ccc(C(=O)Nc2cncc(C(F)(F)F)c2)cc1[C@@H]1CCN(c2cnc3ccc(N4CCN(C)CC4)nn23)C1 [Example 80, (S)-4-methyl-3-(1-(6-(4-methylpiperazin-1-yl)imidazo[1,2-b]pyridazin-3-yl)pyrrolidin-3-yl)-N-(5-(trifluoromethyl)pyridin-3-yl)benzamide]
Ki (DDR2): 5 to 25 nM | Ki (DDR1): 5 to 25 nM

Cc1ccc(C(=O)Nc2cncc(C(F)(F)F)c2)cc1[C@@H]1CCN(c2cncc(OC3CCN(C)CC3)c2)C1 [Example 81, (S)-4-methyl-3-(1-(5-((1-methylpiperidin-4-yl)oxy)pyridin-3-yl)pyrrolidin-3-yl)-N-(5-(trifluoromethyl)pyridin-3-yl)benzamide]
Ki (DDR2): 5 to 25 nM | Ki (DDR1): < 5 nM

Cc1ccc(C(=O)Nc2cncc(C(F)(F)F)c2)cc1[C@@H]1CCN(c2cnn3ccc(N4CCN(C)CC4)nc23)C1 [Example 83, (S)-4-methyl-3-(1-(5-(4-methylpiperazin-1-yl)pyrazolo[1,5-a]pyrimidin-3-yl)pyrrolidin-3-yl)-N-(5-(trifluoromethyl)pyridin-3-yl)benzamide]
Ki (DDR2): 5 to 25 nM | Ki (DDR1): < 5 nM

Cc1ccc(C(=O)Nc2cncc(C(F)(F)F)c2)cc1[C@@H]1CCN(c2cnc3ccc(N4CCOCC4)nn23)C1 [Example 84, (S)-4-methyl-3-(1-(6-morpholinoimidazo[1,2-b]pyridazin-3-yl)pyrrolidin-3-yl)-N-(5-(trifluoromethyl)pyridin-3-yl)benzamide]
Ki (DDR2): 5 to 25 nM | Ki (DDR1): < 5 nM

CC(=O)Nc1cc(N2CC[C@@H](c3cc(C(=O)Nc4cncc(C(F)(F)F)c4)ccc3C)C2)ccn1 [Example 85, (S)-3-(1-(2-acetamidopyridin-4-yl)pyrrolidin-3-yl)-4-methyl-N-(5-(trifluoromethyl)pyridin-3-yl)benzamide]
Ki (DDR2): 5 to 25 nM | Ki (DDR1): < 5 nM

Cc1ccn2ncc(N3CC[C@@H](c4cc(C(=O)Nc5cncc(C(F)(F)F)c5)ccc4C)C3)c2n1 [Example 86, (S)-4-methyl-3-(1-(5-methylpyrazolo[1,5-a]pyrimidin-3-yl)pyrrolidin-3-yl)-N-(5-(trifluoromethyl)pyridin-3-yl)benzamide]
Ki (DDR2): 5 to 25 nM | Ki (DDR1): < 5 nM

CNC(=O)c1cc(N2CC[C@@H](c3cc(C(=O)Nc4cncc(C(F)(F)F)c4)ccc3C)C2)ccn1 [Example 87, (S)-N-methyl-4-(3-(2-methyl-5-((5-(trifluoromethyl)pyridin-3-yl)carbamoyl)phenyl)pyrrolidin-1-yl)picolinamide]
Ki (DDR2): 5 to 25 nM | Ki (DDR1): < 5 nM

Cc1ccc(C(=O)Nc2cncc(C(F)(F)F)c2)cc1[C@@H]1CCN(c2cnn(C)c2)C1 [Example 88, (S)-4-methyl-3-(1-(1-methyl-1H-pyrazol-4-yl)pyrrolidin-3-yl)-N-(5-(trifluoromethyl)pyridin-3-yl)benzamide]
Ki (DDR2): 5 to 25 nM | Ki (DDR1): 5 to 25 nM

Reference: patent US20260242353A1, “HETEROARYL DERIVATIVES AS DDRs INHIBITORS” (CHIESI FARMACEUTICI S.P.A., priority 2022, published 2026)
